Data published in US4315023A, “1-Phenethylimidazole derivatives” (Westwood Pharmaceuticals, Inc., priority 1980, dated 1982).
Counter-ions that a name gives are not always drawn.

Columns and labels:
Candida albicans = Candida albicans induced vaginal infection in mice; assay type: in vivo, female mice; details: Table I; percentage drug concentration giving 50% of the score of untreated control; intravaginal
Method: A majority of the compounds of formula 3 were evaluated together with the prior art compound of formula 2 in a Candida albicans induced vaginal infection in mice and a Trichophyton quinekeanum induced skin infection in guinea pigs. Sabouraud broth was inoculated with Candida albicans and the inoculum incubated for two days at 28° C. on a rotary shaker. Groups of four to five female mice weighing between 18-21 grams were infected intravaginally with a 0.01 ml portion of the cell suspension containing 10^8 cells/ml on day 0. The mice were treated subcutaneously with 0.5 mg of estradiol benzoate three days before and four days after infection. The test compounds were suspended in 1% carboxymethyl cellulose and 0.02 ml of the suspension was instilled intravaginally from day 0 (four hours after infection) to day 4 (5 applications). On day 7, vaginal exudate was taken by a thin glass rod and streaked on a YGP agar plate containing 100 mcg/ml of chloramphenicol. The plate was incubated for two days at 28° C. […] In the following Table I the antifungal activity of the test compound is reported as the EC50 value, which is the percentage drug concentration giving 50% of the score of untreated control animals. The EC50 was calculated by the method of least squares (K. Brounlee: Statistical Theory and Methodology in Science and Engineering, pages 345-349, Wiley Press, New York, 1965). In Table II a more detailed comparison on the in vivo antifungal activities of compound 3a and the isomeric prior art compound 2 are shown together with the data for compound 3b.

Trichophyton quinekeanum = Trichophyton quinekeanum induced skin infection in guinea pigs; assay type: in vivo, male guinea pigs; details: Table I; percentage drug concentration giving 50% of the score of untreated control; topical ointment
Method: In the guinea pig skin infection test, Trichophyton quinekeanum was cultured on a YGP agar slant at 28° C. for 10 days. Spores were collected from the mycelial mat and suspended in Sabouraud broth containing 2% of Tween 80. Groups of 3 male guinea pigs weighing between 400-500 g were used for each dose of test compound. The flanks of the animals were depilated and injured with sandpaper. The injured area was inoculated and rubbed with a glass rod on day 0 with 0.2 ml of the spore suspension containing 10^8 CFU/ml. The test compound was combined with a 1:1 mixture of polyethylene glycol 400 and 4000, and 0.3 ml of the ointment was applied to the infected area on day 1, 3 and 5. Lesions were examined on day 7 and scored as follows: 0, normal; 1, erythema; 2, erythema with whitish area; 3, erythema and numerous whitish areas; 4, erythema with confluent scaling and whitish pateches. A compound showing a mean score of 1.5 or less was considered active.
In the following Table I the antifungal activity of the test compound is reported as the EC50 value, which is the percentage drug concentration giving 50% of the score of untreated control animals. The EC50 was calculated by the method of least squares (K. Brounlee: Statistical Theory and Methodology in Science and Engineering, pages 345-349, Wiley Press, New York, 1965). In Table II a more detailed comparison on the in vivo antifungal activities of compound 3a and the isomeric prior art compound 2 are shown together with the data for compound 3b.
Treatment: 5 applications (day 0 to 4) against candida vaginal infection
and 3 applications (day 1, 3 and 5) against trichophyton skin infection

Streptococcus pneumoniae = experiment: in vitro antibacterial activity (MIC), S. pneumoniae; assay type: cell-based; details: 50% Nutrient Broth + 5% human serum
Streptococcus pyogenes = experiment: in vitro antibacterial activity (MIC), S. pyogenes; assay type: cell-based; details: 50% Nutrient Broth + 5% human serum
S. faecalis = experiment: in vitro antibacterial activity (MIC), S. faecalis; assay type: cell-based, Streptococcus faecalis; details: Enterococcus faecalis; Nutrient Broth
Staphylococcus aureus = experiment: in vitro antibacterial activity (MIC), S. aureus; assay type: cell-based; details: Nutrient Broth

| Compound | EC50, Candida Vaginal Infection (Candida albicans) [%] | EC50, Trichophyton Skin Infection (Trichophyton quinekeanum) [%] | MIC (Streptococcus pneumoniae) [µg/mL] | MIC (Streptococcus pyogenes) [µg/mL] | MIC (S. faecalis) [µg/mL] | MIC (Staphylococcus aureus; Strain A) [µg/mL] | MIC (Staphylococcus aureus; Strain B) [µg/mL] | MIC (Staphylococcus aureus; Strain C) [µg/mL] |
| --- | --- | --- | --- | --- | --- | --- | --- | --- |
| Clc1ccc(CSCSC(Cn2ccnc2)c2ccc(Cl)cc2Cl)c(Cl)c1.O=C(O)/C=C/C(=O)O (stereo not drawn) [Compound 3d, 1-[2-(2,4-Dichlorobenzylthiomethylthio)-2-(2,4-dichlorophenyl)ethyl]-1H-imidazole hydrogen fumarate] | 0.060 | 0.078 | 63 | 63 | > 63 | 0.25 | > 63 | 0.25 |
| Clc1ccc(C(Cn2ccnc2)SCSCc2c(Cl)cccc2Cl)c(Cl)c1 (stereo not drawn) [Compound 3e, 1-[2-(2,6-Dichlorobenzylthiomethylthio)-2-(2,4-dichlorophenyl)ethyl]1-H-imidazole hydrochloride] | > 0.3 | 0.085 | > 63 | > 63 | 0.5 | 0.25 | > 63 | 0.25 |
| Clc1ccc(CSCSC(Cn2ccnc2)c2ccc(Cl)cc2)cc1.O=C(O)/C=C/C(=O)O (stereo not drawn) [Compound 3f, 1-[2-(4-Chlorobenzylthiomethylthio)-2-(4-chlorophenyl)ethyl]-1H-imidazole hydrogen fumarate] | – | – | 63 | 63 | 4 | 1 | > 63 | 1 |
| Clc1ccc(C(Cn2ccnc2)SCSCc2ccc(Cl)cc2Cl)cc1.O=C(O)/C=C/C(=O)O (stereo not drawn) [Compound 3g, 1-[2-(4-Chlorophenyl)-2-(2,4-dichlorobenzylthiomethylthio)ethyl]-1H-imidazole hydrogen fumarate] | – | – | 63 | 63 | 1 | 1 | 8 | 2 |
| Cl.Clc1ccc(C(Cn2ccnc2)SCSCc2ccc(Cl)s2)c(Cl)c1 (stereo not drawn) [Compound 3i, 1-[2-(5-Chloro-2-thienylmethylthiomethylthio)-2-(2,4-dichlorophenyl)ethyl]-1H-imidazole hydrochloride] | 0.0022 | 0.038 | – | – | – | – | – | – |
